The text below walks through data of patent US7745417B2, “Nucleosides or nucleotides having novel unnatural bases and use thereof” (RIKEN, priority 2002, dated 2010).

The target of series [1] is T1, T7 RNA polymerase (Escherichia phage T7, UniProt P00573). The conditions noted are these: 0.25 mM triphosphate; product of 100 nucleotides. The method, then:
(§1) The reaction composition of T7 transcription may be the same as described in Ohtsuki et al., 2001. Details are as follows: 40 mM Tris-HCl (pH 8.0), 5 mM DTT, 24 mM MgCl2, 2 mM spermidine, 0.01% TritonX-100, 10 mM GMP, 1 mM NTPs, 0-0.25 mM 5IyTP, 0.2 μl/μl template DNA, and 2.5 U/μl T7 RNA polymerase (TaKaRa). After enzymatic reaction at 37° C. for 6 hours, each reaction product was purified by electrophoresis on an 8% polyacrylamide-7M urea gel.

The target of series [2] is T1, T7 RNA polymerase. The conditions noted are these: T7 transcription. As to the method: as §1
When T7 transcription reaction is performed in the presence of [α-^32P]ATP or [α-^32P]GTP, a nucleoside 3′-phosphate (Np) 5′-terminal to A or G is labeled with ^32P. Each gel-purified RNA was completely digested into Np by RNase T2 (Sigma). If 5Iy is introduced at residue 84 or 92, the nucleoside 3′-phosphate of 5Iy (5IyTp) is labeled with ^32P via [α-^32P]GTP, while if 5Iy is introduced at residue 87, 5IyTp is labeled via [α-^32P]ATP (FIG. 5, FIG. 6-b). For base composition analysis of 5Iy-containing RNAs, each of the completely digested products was separated by 2D-TLC and determined for each nucleotide content.
More specifically, to completely digest RNA, 0.75 μl RNase T2 solution (5 units/μl; 100 mM NaOAc pH 4.5, 10% glycerol) was added to 4.25 μl aqueous solution containing the labeled RNA and a 0.25 OD E. coli-derived tRNA mixture (Sigma), followed by overnight enzymatic reaction at 37° C. A part of the reaction solution was spotted onto a 10 cm×10 cm TLC plate (Funacell SF; Funakoshi Co., Ltd., Japan) and developed in two dimensions. Developing solutions for the first and second dimensions are isobutyric acid/ammonia/water (66:1:33 by volume) and 2-propanol/hydrochloric acid/water (70:15:15 by volume), respectively. The developed spots were detected and quantified using a bioimaging analyzer (BAS2500, Fuji Photo Film Co., Ltd., Japan).
Each value was calculated from the following equation. The theoretical numbers of nucleotides are in parentheses.

Series [3] concerns the target T1, T7 RNA polymerase. The settings on record: for incorporation into RNA opposite s in the template: 1 mM, in competition with natural NTPs; for efficiency of transcription reaction: full-length 17-mer RNA, transcription using natural base pairing set to 100%; for misincorporation opposite natural nucleotides in the template: s-free control template. The method, then:
The T7 transcription reaction was performed on 20 μl scale. The composition of T7 transcription is as follows: 40 mM Tris-HCl (pH 8.0), 5 mM DTT, 8 mM MgCl2, 2 mM spermidine, 0.01% TritonX-100, 10 mM GMP, 1 mM NTPs (N=A, G, C, U, Bio-yTP, Bio^2-yTP), 2 μCi [α-^32P]ATP, 0.5 μM double-stranded DNA, and 2.5 U/μl T7 RNA polymerase (TaKaRa) [Ohtsuki et al., 2001]. After enzymatic reaction at 37° C. for 3 hours, each reaction solution was supplemented with an equal volume of a 10M urea-containing TPE solution and warmed at 75° C. for 3 minutes to stop the reaction. Aliquot parts of the reaction solutions were then electrophoresed on a 20% polyacrylamide-7M urea gel and the [α-^32P]ATP-labeled reaction products were analyzed with a bioimaging analyzer (BAS2500, Fuji Photo Film Co., Ltd., Japan).

Series [4] has as its target T2, Raf-1 RBD (GST-RBD) (Homo sapiens, UniProt P04049 P04049:51-131). The experiment in a line: EMSA; binding to 2 GST-RBD lower than XL. The conditions noted are these: tags: GST fusion, expressed in E. coli; 2 per XL dimer), stated; label: 32P 5'-end. The method, then:
(§2) The product (XL) obtained by crosslinking reaction an equal concentration (0.1 µM) mixture of 9A(5Iy87) and Raf-1 RBD was purified from a gel and analyzed for binding between XL and GSTRBD by gel shift assay. As a control of RNA 9A dimer, RNA 9A molecules were also linked in tandem to newly prepare RNA 9A×2 (200 nucleotides in total length), followed by gel shift assay. RNA 9A×2 is an RNA molecule of 200 nucleotides in total length that has two essential regions of RNA 9A (residues 1-80) in its molecule. It was prepared by transcription reaction using T7 RNA polymerase (Epicentre) and subcloned into vector pCR®II-TOPO (Invitrogen).
(§3) Electrophoresis was performed at room temperature and at a constant voltage (150 V) for about 2 hours (gel size: 16 cm×16 cm×1 mm). The composition of electrophoresis buffer is as follows: 12.5 mM Tris and 125 mM Glycine. Each electrophoresed gel was dried using a gel dryer and analyzed with a bioimaging analyzer (BAS2500, Fuji Photo Film Co., Ltd., Japan).
A general note: Mobility shift assays separate free from complexed probe on a gel.

The target of series [5] is B-Raf RBD (GST-RBD) (Homo sapiens, UniProt P15056 P15056:149-226). The experiment in a line: filter; 2 nM RNA; binds B-Raf RBD but does not inhibit B-Raf RBD/Ras interaction. The conditions noted are these: tags: GST fusion, expressed in E. coli; label: 32P 5'-end; pseudoknot (estimated). As to the method:
The binding efficiency (Binding %) to various concentrations of protein was determined for each RNA aptamer (2 nM) by a filter binding method and plotted in the figure.

The target in series [6] is T2, Raf-1 RBD (GST-RBD). The experiment in a line: EMSA; 1 XL binds 2 GST-RBD; higher activity than 9Ax2. The conditions noted are these: tags: GST fusion, expressed in E. coli; 2 per XL dimer), stated; label: 32P 5'-end. The method, then:
as §2, §3

Series [7] deals with T2, Raf-1 RBD (GST-RBD). Put plainly: EMSA; no shift even at increased GST-RBD. The conditions noted are these: tags: GST fusion, expressed in E. coli; 2 per XL dimer), stated; label: 32P 5'-end.

T1 sequence (P00573 whole entry): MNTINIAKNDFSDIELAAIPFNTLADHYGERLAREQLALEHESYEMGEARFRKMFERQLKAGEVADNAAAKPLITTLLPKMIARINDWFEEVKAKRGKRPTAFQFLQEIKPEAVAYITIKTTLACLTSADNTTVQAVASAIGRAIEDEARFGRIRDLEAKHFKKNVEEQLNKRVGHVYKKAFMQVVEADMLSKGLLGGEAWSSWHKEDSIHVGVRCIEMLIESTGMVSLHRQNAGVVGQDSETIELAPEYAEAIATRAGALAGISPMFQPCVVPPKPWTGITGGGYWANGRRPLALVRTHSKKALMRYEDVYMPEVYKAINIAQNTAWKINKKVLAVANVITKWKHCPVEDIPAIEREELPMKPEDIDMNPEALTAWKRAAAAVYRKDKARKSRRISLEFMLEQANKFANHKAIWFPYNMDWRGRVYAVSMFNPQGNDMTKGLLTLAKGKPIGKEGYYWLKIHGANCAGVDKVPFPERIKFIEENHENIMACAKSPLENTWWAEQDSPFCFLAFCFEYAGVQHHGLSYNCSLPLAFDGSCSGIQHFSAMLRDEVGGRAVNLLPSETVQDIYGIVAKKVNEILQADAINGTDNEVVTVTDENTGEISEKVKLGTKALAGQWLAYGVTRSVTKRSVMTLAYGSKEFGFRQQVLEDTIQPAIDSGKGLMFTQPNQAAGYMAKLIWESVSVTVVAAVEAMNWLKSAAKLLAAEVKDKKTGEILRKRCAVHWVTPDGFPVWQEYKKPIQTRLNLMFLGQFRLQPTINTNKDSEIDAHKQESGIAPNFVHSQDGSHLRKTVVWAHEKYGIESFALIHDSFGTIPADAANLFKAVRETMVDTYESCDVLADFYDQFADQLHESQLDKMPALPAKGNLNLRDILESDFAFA
B-Raf RBD (GST-RBD), sequence (P15056 149-226, one chain of several): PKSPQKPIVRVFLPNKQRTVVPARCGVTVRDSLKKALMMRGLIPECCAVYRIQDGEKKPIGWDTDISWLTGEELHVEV

For `O=c1[nH]cc(C#Cc2ccccc2)cc1[C@@H]1O[C@H](COP(=O)(O)OP(=O)(O)OP(=O)(O)O)[C@@H](O)[C@H]1O` [3-(β-D-ribofuranosyl)-5-(2-phenylethynyl)-pyridin-2(1H)-one 5′-triphosphate], in series [1], the “progress of transcription reaction with the unnatural triphosphate” value was “confirmed to proceed”. `O=c1[nH]cc(I)cc1[C@@H]1O[C@H](COP(=O)(O)OP(=O)(O)OP(=O)(O)O)[C@@H](O)[C@H]1O` [5IyTP, 3-(β-D-ribofuranosyl)-5-iodopyridin-2(1H)-one 5′-triphosphate]: in series [1], the “progress of transcription reaction with the unnatural triphosphate” value is “proceeded efficiently”. The “misincorporated 5Iy, share of the total” value in series [2] is listed as “less than 0.5%”. In series [2] (s-containing template), the “selectivity of incorporation opposite s in the template” value is at least 97%. As for “Biotinylated 5-(3-amino-1-propenyl)-3-(β-D -ribofuranosyl)-2-pyridone 5′-triphosphate [Bio-yTP]”, in series [3], the “incorporation into RNA opposite s in the template” value is “competitively and selectively incorporated opposite s in the template”; the “efficiency of transcription reaction” value was “about 50%”; the “misincorporation opposite natural nucleotides in the template” value is “almost no misincorporation”.

Take “Biotinylated 5-(3-amino-1-propynyl)-3-(β-D-ribofuranosyl)-2-pyridone 5′-triphosphate [Bio^2-yTP]”: in series [3], the “incorporation into RNA opposite s in the template” value is “competitively and selectively incorporated opposite s in the template”; the “efficiency of transcription reaction” value was “about 50%”; the “misincorporation opposite natural nucleotides in the template” value was “no misincorporation”.

B1: RNA 9Ax2 (tandem 9A, 200 nt) (ssRNA)
RNA: GGGAGUGGAGGAAUUCAUCGAGGCAUAUGUCGACUCCGUCUUCCUUCAAACCAGUUAUAAAUUGGUUUUAGCAUAUGCCUUAGCGACAGCAAGCUUCUGCGGGAGUGGAGGAAUUCAUCGAGGCAUAUGUCGACUCCGUCUUCCUUCAAACCAGUUAUAAAUUGGUUUUAGCAUAUGCCUUAGCGACAGCAAGCUUCUGC
Consider B1, for which the binding result in series [4] is listed as “binds”.

B2: RNA 9A (ssRNA)
RNA: GGGAGUGGAGGAAUUCAUCGAGGCAUAUGUCGACUCCGUCUUCCUUCAAACCAGUUAUAAAUUGGUUUUAGCAUAUGCCUUAGCGACAGCAAGCUUCUGC
As to B2, the binding result in series [5] is “binds”.

B3: RNA XL (UV-crosslinked dimer of 9A(5Iy87)) (ssRNA)
RNA 1: GGGAGUGGAGGAAUUCAUCGAGGCAUAUGUCGACUCCGUCUUCCUUCAAACCAGUUAUAAAUUGGUUUUAGCAUAUGCCUUAGCGACAGCAAGCUUCUGC
RNA 2: GGGAGUGGAGGAAUUCAUCGAGGCAUAUGUCGACUCCGUCUUCCUUCAAACCAGUUAUAAAUUGGUUUUAGCAUAUGCCUUAGCGACAGCAAGCUUCUGC
modifications: 5Iy at position 87, UV-crosslinked dimer
B3: the binding result in series [6] is on record as “binds”.

B4: RNA OC (ssRNA)
RNA: GGGAGUGGAGGAAUUCAUCGAGGCAUCUGGGAACCCUAUCUUGCUUUUGGUAGCUGUAUUCACCUGUAACAGCAUAUGCCUUAGCGACAGCAAGCUUCUGC
Turning to B4, in series [7], the binding result is reported as “no binding”.
